Data: paper PMC8928955, “Assessment of Bioavailability after In Vitro Digestion and First Pass Metabolism of Bioactive Peptides from Collagen Hydrolysates” (Current Issues in Molecular Biology, 2021)
Where two headings read alike, the source gives them in different places. Non-standard residues stand in square brackets, D forms with d. Residues, ends and D or L forms follow the SMILES beside them. Hyp = O=C(O)[C@@H]1C[C@@H](O)CN1

Experiments:
[1] = in vitro; details: human
Description: (§1) A HIEC-6/HepG2 cell co-culture system was used to determine the bioavailability of targeted BAPs from CHs after digestion (Figure 1). HIEC-6 cells and HepG2 were cultured separately but then later combined in a transwell system using polyester (PET) ThinCerts (Greiner Bio-One, Cat no. 662641, Monroe, NC, USA) and corresponding 24 multiwell cell culture plates (Greiner Bio-One, Cat no. 662160, Monroe, NC, USA). […] HIEC-6 cells were seeded onto ThinCerts at 1 × 10^5 cells/well. The medium was changed every 2 days and cells were grown for a total of 8–9 days. […] HepG2 cells were then added to the basolateral side of the transwell (1 million cells/mL). […] At time 0, the apical medium was replaced with media containing 2 mg/mL reconstituted freeze-dried (FD) CH digesta (either CH-GL and CH-OPT), or only media (blank). The co-culture and treatments were incubated for 2 h at 37 °C, 5% CO2. After 2 h, the inserts containing HIEC-6 cells were removed, and the plates containing HepG2 cells were incubated for another 3 h. Samples were taken from the apical and basolateral sides at times 0, 2 and 5 h, and microcentrifuged at 2000 rpm for 15 min. The supernatant was collected and used for subsequent peptide analysis (see Section 2.7). Three independent experiments assessing bioavailability were completed. Controls included inserts without seeded cells (TEER control) and seeded wells with no CHs treatment (only media; negative control).
(§2) Samples were purified from cellular and protein debris by adapting the use of Amicon® Ultra-0.5 Centrifugal Filter Devices (Millipore, UFC501096, Burlington, Massachusetts, USA). Samples from cell culture were processed as per the manufacturer’s instructions, however, the filtrate (comprising of peptides) was not discarded and instead used for analysis. A CE system (Capel 205M; Lumex Instruments, Fraserview Place, BC) was used for the targeted quantification of 5 peptides (Gly-Pro, Hyp-Gly, Ala-Hyp, Pro-Hyp, Gly-Pro-Hyp). The instrument was set for 20 °C and the separation capillary (Molex, 2000019, Lisle, Illinois, US) was similar to previous CE methods for collagen analysis [36]; 60 cm in total length, 53 cm effective length, and 75 µm inside diameter. Injections were completed using pressure (30 mbar for 10 s) at 0 kV and analysis was completed at 20 kV using 0 mbar for 1199 s at 205 nm. A 0.1 M phosphate buffer (pH 2.4) was used for rinsing and as running buffer. Filtered samples were diluted with running buffer before injection. Before sample injection, the capillary was rinsed with MilliQ water, 0.5 M NaOH and running buffer, each for 5 min. The electropherograms were processed to determine peak area using the software Elforun (Lumex Instruments Canada, Version 4.2.4, Mission, BC, Canada). Quantification of each peptide, based on peak area, was performed using external standards and corresponding calibration curves, where the linearity was assessed by the coefficients of determination, R^2. The mean of three measurements for each treatment was taken.
(§3) Bioavailability, after first pass metabolism, was expressed as a percentage of final and initial peptide digesta values, as described in Sadeghi Ekbatan et al. (2018) [8]. Bioavailability (%) = Peptide content after HepG2 incubation (Basolateral 5 h)/Initial amount of peptide (Apical 0 h) × 100

[2] = test system: Caco-2 cells; details: cited from earlier work
[3] = Bioavailability after first pass metabolism in HIEC-6/HepG2 co-culture; details: human
Description: as §1, §2, §3

[4] = test system: HepG2 cells; assay: Hepatic first pass effect on transported peptides after HepG2 incubation; details: basolateral 5 h as percentage of basolateral 2 h, mean ± SEM
Description: as §1
(§4) Samples were purified from cellular and protein debris by adapting the use of Amicon® Ultra-0.5 Centrifugal Filter Devices (Millipore, UFC501096, Burlington, Massachusetts, USA). Samples from cell culture were processed as per the manufacturer’s instructions, however, the filtrate (comprising of peptides) was not discarded and instead used for analysis. A CE system (Capel 205M; Lumex Instruments, Fraserview Place, BC) was used for the targeted quantification of 5 peptides (Gly-Pro, Hyp-Gly, Ala-Hyp, Pro-Hyp, Gly-Pro-Hyp). […] Injections were completed using pressure (30 mbar for 10 s) at 0 kV and analysis was completed at 20 kV using 0 mbar for 1199 s at 205 nm. A 0.1 M phosphate buffer (pH 2.4) was used for rinsing and as running buffer. Filtered samples were diluted with running buffer before injection. Before sample injection, the capillary was rinsed with MilliQ water, 0.5 M NaOH and running buffer, each for 5 min. The electropherograms were processed to determine peak area using the software Elforun (Lumex Instruments Canada, Version 4.2.4, Mission, BC, Canada). Quantification of each peptide, based on peak area, was performed using external standards and corresponding calibration curves, where the linearity was assessed by the coefficients of determination, R^2. The mean of three measurements for each treatment was taken.
(§5) Hepatic first pass effect (%) was calculated as:Hepatic effect (%) = Peptide content after incubation with HepG2 (Basolateral 5 h)/Content of peptide available for liver metabolism (Basolateral 2 h) × 100

[5] = Peptide transport and apparent permeability across the HIEC-6 intestinal layer of a HIEC-6/HepG2 transwell co-culture; details: human; for Papp A→B at 2 h: Apparent permeability coefficient (Papp), mean ± SEM
Description: as §1, §2
(§6) The apparent permeability coefficient (Papp) was calculated similarly to Song et al. (2020) [7], using the standard equation:Papp = ΔQ/(Δt × A × C0) where Δt is the incubation time (s), A is the surface area of the insert filter membrane (cm^2), C0 is the initial concentration of peptides in the apical compartment at time 0 h (μM), and ΔQ is the amount of peptide transported within a given period (μmol/s). The incubation timepoint (Δt) used was representative of the intestinal transport phase (2 h timepoint).

[6] = test system: HIEC-6 cells; assay: as above; details: basolateral 2 h vs apical 0 h, mean ± SEM
Description: as §1, §2, §6

[7] = test system: HIEC-6/HepG2 co-culture; details: human
Description: as §1, §2, §3

[8] = test system: HepG2 cells
Description: as §1, §4, §5

[9] = human, in vivo
[10] = human, in vivo; cited from earlier work
[11] = test system: HIEC-6 cells
Description: as §1, §2, §6

[12] = in vitro; details: human, Apparent permeability coefficient (Papp)
Description: as §1, §2, §6

[13] = Peptide bioavailability after first pass metabolism

bioavailability at 5 h [1, 13] [%]	Hepatic effect (%) on peptide content following HepG2 incubation ([4]; CH-GL) [%]	Hepatic effect (%) on peptide content following HepG2 incubation ([4]; CH-OPT) [%]	Papp A→B at 2 h ([5]; CH-GL treatment) [×10⁻⁶ cm/s]	Peptide transport (%) across intestinal epithelium ([6]; CH-GL digesta 2 mg/mL apical) [%]	Peptide transport (%) across intestinal epithelium ([6]; CH-OPT digesta 2 mg/mL apical) [%]	Papp A→B at 2 h [12] [×10⁻⁶ cm/s]	Compound	Papp ([2]; Caco-2)	further results
> 32							NCC(=O)N1CCC[C@H]1C(=O)O [Gly-Pro] (H-Gly-Pro-OH; N-terminus and C-terminus assumed)		
	151.4 ± 24.3	63.63 ± 8.63	1.91 ± 0.479	19.18 ± 4.81	24.15 ± 1.42		O=C(O)[C@@H]1C[C@@H](O)CN1C(=O)[C@@H]1CCCN1 [Pro-Hyp] (H-Pro-[Hyp]-OH; N-terminus and C-terminus assumed)		Papp ([2]; Caco-2, LC-MS/MS, ref 15 (Sontakke et al. 2016)): 0.13 ± 0.03 × 10^−6 cm/s; Papp ([2]; cell model not printed at the place, ref 40 (Feng et al. 2017)): 1.45 ± 0.17 × 10^−6 cm/s; bioavailability at 5 h ([3]; Bioavailability (%) after first pass metabolism, CH-GL, basolateral 5 h as percentage of apical 0 h, mean ± SEM): 26.8 ± 3.97%; bioavailability at 5 h ([3]; Bioavailability (%) after first pass metabolism, CH-OPT, basolateral 5 h as percentage of apical 0 h, mean ± SEM): 15.4 ± 2.6%
						~9	NCC(=O)N1CCC[C@H]1C(=O)N1C[C@H](O)C[C@H]1C(=O)O [Gly-Pro-Hyp] (H-Gly-Pro-[Hyp]-OH; N-terminus and C-terminus assumed)	1.09 ± 0.03 × 10^−6 cm/s	Bioavailability (%) after first pass metabolism [7]: none was observed; Hepatic effect (%) on peptide content following HepG2 incubation [8]: 22.32 ± 5.09%; bioavailability at 5 h ([1]; Bioavailability (%) after first pass metabolism): 12.2 ± 1.12%; Increase of plasma Gly-Pro-Hyp content [9]: 162.5%; Gly-Pro-Hyp content in the plasma after 2 h [10]: ~ 1050 µM; Initial Gly-Pro-Hyp content in the plasma [10]: ~ 400 µM; Apparent permeability coefficient (Papp) [11]: no apparent permeability coefficient could be determined
	304.9 ± 57.2	198.0 ± 107.6	0.725 ± 0.195	9.27 ± 2.49	26.4 ± 5.78		C[C@H](N)C(=O)N1C[C@H](O)C[C@H]1C(=O)O [Ala-Hyp] (H-Ala-[Hyp]-OH; N-terminus and C-terminus assumed)		bioavailability at 5 h ([3]; Average bioavailability after first pass metabolism, average): > 20%; Papp at 2 h [5]: 0.725 ± 0.195 ×10⁻⁶ cm/s; Papp A→B at 2 h ([5]; CH-OPT treatment): 1.03 ± 0.226 ×10⁻⁶ cm/s
> 32						6.74 ± 1.2	O=C(O)CNC(=O)[C@@H]1C[C@@H](O)CN1 [Hyp-Gly] (H-[Hyp]-Gly-OH; N-terminus and C-terminus assumed)	1e-05 cm/s	Transport (%) [2]: 22.63 ± 5.19%; Apparent permeability coefficient (Papp) ([11]; human, 2 h): 5.593 ± 2.476 × 10^−6 cm/s
